Test results as given in patent US7579477B2, “Thiazole-based nitric oxide donors having alkyl substituent(s) and uses thereof” (priority 2004, dated 2009).
Entries after “also recorded” stand apart in the source; their conditions may differ.

Key:
isolated rat aorta [1] = assay: In vitro vasorelaxation of rat aortic rings contracted with epinephrine; format: cell-based; conditions: isolated rat aorta pre-treated in vitro with 1 μM epinephrine; figure legends
Text: Male Sprague Dawley rats were anaesthetized using intraperitoneal injection of ketamine and xylazine (50 and 10 milligram per kilogram, respectively) and the thoracic aorta, the large upper portion of the descending aorta, starting at the caudal border of the chest bone, was removed thereafter, while carefully removing the paraadventetial tissue surrounding the vessel. Aortae were cut into rings of 4-5 millimeters and mounted onto the tissue path. The path buffer (Krebs-bicrbonate) was constantly gassed with carbogen and maintained at 37° C. The rings were preloaded under 2 g tension and equilibrated for 90 minutes, while refreshing the buffer every 15 minutes. After stabilization, the rings were contracted with epinephrine (1 μM). Cumulative Concentration-Response Curves (CCRC) were measured for the vasorelaxing effect induced by adding various concentrations, ranging from 10^−10 M to 10^−5 M of Pet-2, Pet-3, Pet-7, Pet-8, Pet-12, Pet-24, Pet-43, Pet-59, Pet-147, Pet-152 and Pet-154, and glyceryltrinitrate (GTN), according to the procedure described in Feelich et al., Molecular Pharmacology, 56:243-253 (1999). The vehicle, which was used for this experiment was water:ethanol:propyleneglycol at proportional ratio of 1:1:1.

[2] = tested on: c-GMP in aortic rat tissue; assay: Cyclic-GMP measurement in aortic rat tissue (radioimmunoassay); format: cell-based; conditions: for levels of cGMP as compared with GTN: isolated rat aorta, FIGS. 25, 27, 33
Description: GTN (10^−6 M) was added to the chamber and, 1 minute after exposure to the drug, rings (usually 3-5) were taken, wrapped with aluminum foil and immediately frozen in liquid nitrogen for storage. Control sample group was treated with the vehicle solution only. At the time of analysis, rings were thawed, blotted over a dry gauzed and weighted. A known weight of tissue was homogenized in 2 ml ice-cold modified Hank's balanced salt solution containing (in gram/liter) NaCl 8; KCl 0.4; glucose 1; KH2PO4 0.06; Na2HPO4 0.047; Phenol red 0.017 and further containing 25 mM EDTA (disodium salt). The homogenate was centrifuged at 4000 g (force units) for 10 minutes at 2-4° C. and the supernatant was thereafter transferred into fresh pre-cooled test tube containing 1 ml of acetonitrile. The tubes were vortex mixed for a few seconds and subsequently centrifuged at 4000 g for 5 minutes at 2-4° C., to remove the precipitated protein. Each supematant was transferred into a clean test tube and evaporated to dryness under a stream of nitrogen at 55° C. The dry residue was reconstituted with 10 volumes of Tris-EDTA buffer pH 7.5 (0.05 M Tris containing 4 mM EDTA). Aliquots of 100 μl of the reconstituted solution in duplicate were used for c-GMP measurements using Amersham RIA kit, as is described in Haj-Yehia & Benet [Pharmacology, 1995, 273, 1, pp. 94-100]. Standard curves were plotted with six concentrations (0, 0.5, 1, 2, 4 and 8 pmoles of c-GMP per tube).

isolated rat aorta [3] = assay: In vitro induction of tolerance to NO releasing compounds (vasorelaxation after pre-exposure); format: cell-based; conditions: rat aorta pre-treated with epinephrine and then with the compound (0.44 mM) versus control
Description: Aortic rings were prepared as described hereinabove, and were exposed to 0.44 mM GTN (vehicle was water:ethanol:propyleneglycol at proportional ratio of 1:1:1) for 1 hour before CCRC construction, to thereby induce tolerance to nitroglycerine. At the end of the tolerance induction period, rings were thrice washed with the path buffer (Krebs-bicrbonate) every 15 minutes for the following hour and then CCRC for vasorelaxation on GTN-induced tolerance rings were constructed for GTN (pretreated versus untreated rings, FIG. 15), in order to verify the ability to induce and measure GTN tolerance induction in vitro
Attempted induction of tolerance to the NO-donating compounds of the present invention was performed under the same conditions as for GTN. Thus, in an exemplary experiment, rings were exposed to 0.44 mM solution of Pet-3 in the attempt to induce tolerance for Pet-3. CCRC were then measured for the vasorelaxing effect of Pet-3 on a group of rings which were pre-exposed to Pet-3 as to induce tolerance to Pet-3, and for an untreated control group. The above protocol was repeated with Pet-2, Pet-7, Pet-8, Pet-12, Pet-24, Pet-43, Pet-149 and Pet-152.

[4] = tested on: mean arterial blood pressure of rats; assay: Hypotensive effects: mean arterial pressure after iv bolus; format: in vivo, rat; conditions: anesthetized rats, phenylephrine, iv bolus doses
Description: Mean arterial pressure (MAP) was monitored and determined during bolus infusion of Pet-2, Pet-3, Pet-7, Pet-8, Pet-12 and Pet-13. Briefly, polyethylene catheters (PE50) were inserted into the carotid artery and into the jugular vein of anesthetized hypertensive Sprague-Dawley male rats (200-300 grams). A blood pressure recorder was placed within the carotid artery. Phenylephrine (0.1 mg) was then injected and the mean arterial blood pressure (MABP) was monitored continuously until a stable baseline was reached. The hypotensive effects of intravenous (iv) bolus doses (0.1 mg of each tested compound) administered intravenously at the jugular vein in minimal volume of vehicle (0.2 ml per dose) were evaluated. Five minutes were allowed between each dose, during which the maximal decrease in MAP was recorded and a dose-response graph comparing the hypotensive effect of the compounds was constructed.

[5] = tested on: cGMP in isolated aorta of rats pre-treated in vivo; assay: Induction of in vivo nitrate tolerance (cGMP in aorta after 16 hour infusion); design: species or system rat; conditions: for tolerance induction in vivo: cGMP accumulation in aorta of rats pre-treated in vivo, FIGS. 24, 26
Description: For c-GMP levels and tolerance development, the rat's thoracic aorta was isolated after exposure to the tested compound in vivo, and measured as described above in the in vitro assays.
Male Sprague Dawley rats (220 to 250 grams) were housed under constant temperature and humidity conditions. Light was maintained at a 12/12 light dark cycle. Except for 12 hours before the experiment, when food fasting was initiated, all rats had free access to standard rat pellet diet and tap water. The animals were anesthetized by intraperitoneal injection of ketamine and xylazine combination (50 and 10 milligram per kilogram, respectively). […] The catheters were filled with normal saline solution containing 1000 IU/ml of heparin and plugged with a metal pin. Catheters were externalized to the back of the neck region and secured by a polyester felt disk.
After implantation, the rats were individually housed until they regained their preoperative weight and appeared healthy (3 to 4 days post-operation). At this time point (day 0), an osmotic mini-pump (Alza Corp., Palo Alto, Calif.) delivering constant volume (10 μl/hour) of vehicle or drug was connected to one of the intravenous catheters.
For inducing tolerance to the tested NO-donor according to the present invention, the animals received 200 μg/hour of the tested compound for 16 hours (short-term-induced tolerance). A similar number of animals were processed by the same surgical procedure and received the vehicle alone (10 μl/hour of a solution consisting of 30% ethanol and 30% propylene glycol in sterile distilled water for injection).
At the end of the infusion periods used for the development of tolerance (16 hour), the rats were anesthetized as described above, the two catheters were externalized and the delivering catheters were disconnected from the mini-pump. The abdomen was opened by midline incision and the thoracic aorta were isolated, washed and cleaned from the surrounding tissues. […]

isolated rat aorta [6] = assay: Cross-tolerance study GTN / Pet-12 on aortic rings; format: cell-based
Description: Cross-tolerance studies were conducted using the same technique described above for measuring vasorelaxation of aortic rings from rats. Two groups of aortic rings samples were pre-treated with GTN, then one group was measured for vasorelaxation by GTN and the second group for vasorelaxation by Pet-12, an exemplary NO-donor according to the present invention. For the opposite cross-tolerance studies, two groups of aortic rings samples were pre-treated with Pet-12, then one group was measured for vasorelaxation by GTN and the second group for vasorelaxation by Pet-12.

SMILES	vasorelaxation effect as compared with glyceryltrinitrate (isolated rat aorta [1])	levels of cGMP as compared with GTN [2]	tolerance induction in vitro (isolated rat aorta [3])	hypotensive effect on MAP following successive administrations [4]	other results
Cc1nc(Nc2cccc3ccccc23)sc1CCO[N+](=O)[O-] [Pet-149, [4-Methyl-5-(2-nitrooxy-ethyl)-thiazol-2-yl]-naphthalen-1-yl-amine]	superior	increased levels of cGMP	absence of tolerance induction	–	–
Cc1nc(N(C)C)sc1CCO[N+](=O)[O-] [Pet-7, Dimethyl-[4-methyl-5-(2-nitrooxy-ethyl)-thiazol-2-yl]-amine]	–	increased levels of cGMP	absence of tolerance induction	consistent and reproducible	–
Cc1nc(NC(=O)c2cccnc2)sc1CCO[N+](=O)[O-] [Pet-154, N-[4-methyl-5-(2-nitrooxy-ethyl)-thiazol-2-yl]-nicotinamide]	–	increased levels of cGMP	–	–	–
Cc1nc(C)c(CCO[N+](=O)[O-])s1 [Pet-3, 2,4-Dimethyl-5-(2-nitrooxy-ethyl)-thiazole]	superior	increased levels of cGMP	absence of tolerance induction	consistent and reproducible	–
Cc1nc(CCCCc2nc(C)c(CCO[N+](=O)[O-])s2)sc1CCO[N+](=O)[O-] [Pet-13]	–	–	–	consistent and reproducible	–
O=[N+]([O-])OCC(CO[N+](=O)[O-])O[N+](=O)[O-] [GTN, glyceryl trinitrate, reference compound]	–	–	tolerance induced	attenuation	c-GMP level following a repeated treatment ([2]; rat aorta): significantly reduced; level of cGMP following a repeated treatment in vivo ([5]; aorta of rats infused in vivo, FIG. 24): decreased; tolerance induction in vivo [5]: tolerance inducing effect
Cc1nc(-c2cccnc2)sc1CCO[N+](=O)[O-] [Pet-12, 3-[4-Methyl-5-(2-nitrooxy-ethyl)-thiazole-2-yl]-pyridine]	–	–	absence of tolerance induction	consistent and reproducible	tolerance induction in vivo [5]: absence of tolerance induction; also recorded: lack of tolerance induction; effect of induced tolerance to GTN on vasorelaxation capacity (isolated rat aorta [6]; rings pre-treated with GTN): no effect; tolerance evoked by pre-treatment with Pet-12 (isolated rat aorta [6]; rings pre-treated with Pet-12, vasorelaxation by GTN or Pet-12): does not evoke tolerance to itself not to GTN
Cc1nc(Nc2nc(C)c(CCO[N+](=O)[O-])s2)sc1CCO[N+](=O)[O-] [Pet-43, Bis-[4-methyl-5-(2-nitrooxy-ethyl)-thiazol-2-yl]-amine]	superior	–	absence of tolerance induction	–	–
C=CCNc1nc(C)c(CCO[N+](=O)[O-])s1 [Pet-155, allyl-[4-methyl-5-(2-nitrooxy-ethyl)-thiazol-2-yl]-amine]	superior	increased levels of cGMP	–	–	–
Cc1nc(-c2ccc(C(F)(F)F)cc2)sc1CCO[N+](=O)[O-] [Pet-59, 4-Methyl-5-(2-nitrooxy-ethyl)-2-(4-trifluoromethyl-phenyl)-thiazole]	superior	increased levels of cGMP	–	–	–
CCNc1nc(C)c(CCO[N+](=O)[O-])s1 [Pet-147, Ethyl-[4-methyl-5-(2-nitrooxy-ethyl)-thiazol-2-yl]-amine]	–	increased levels of cGMP	–	–	–
CNc1cncc(-c2nc(C)c(CCO[N+](=O)[O-])s2)n1 [Pet-24, Methyl-{6-[4-methyl-5-(2-nitrooxy-ethyl)-thiazol-2-yl]-pyrazin-2-yl}-amine]	–	increased levels of cGMP	absence of tolerance induction	–	–
Cc1nc(NC(=O)[C@@H](C)c2ccc(CC(C)C)cc2)sc1CCO[N+](=O)[O-] (stereo in doubt) [Pet-152, 2-(4-Isobutyl-phenyl)-N-[4-methyl-5-(2-nitrooxy-ethyl)-thiazol-2-yl]-propionamide]	superior	increased levels of cGMP	–	–	–
Cc1nc(-c2ccccc2)sc1CCO[N+](=O)[O-] [Pet-8, 4-Methyl-5-(2-nitrooxy-ethyl)-2-phenyl-thiazole]	superior	increased levels of cGMP	–	consistent and reproducible	–
Cc1nc(N)sc1CCO[N+](=O)[O-] [Pet-10, 4-methyl-5-(2-nitrooxy-ethyl)-thiazole-2-ylamine]	–	increased levels of cGMP	–	–	–
